Data from patent US20100056596A1, “RESISTANCE-REPELLENT RETROVIRAL PROTEASE INHIBITORS” (Sequoia Pharmaceuticals, priority 2004, published 2010).
Read-outs that look alike come from different tables or passages of the source.

What was measured:
[1] = test system: HIV-1 isolates, Mutant 8; assay: In vitro drug sensitivity of HIV-1 laboratory isolates, Mutant 8; assay type: cell-based
Procedure: (§1) In Vitro Drug Sensitivity of HIV-1 Laboratory Isolates to PIs
(§2) The sensitivities of HIV-1 isolates against compounds of the invention were determined as previously described with minor modifications (Shiraska et al., Proc. Natl. Acad. Sci. USA, 92, 2398-2402 (1995)).

[2] = biological target: HIV-1 protease Mutant 8 (Human immunodeficiency virus type 1, UniProt P04585); assay: Ki against HIV-1 protease Mutant 8; assay type: biochemical; conditions: Mutant 8
[3] = test system: HIV-1 isolates, WT; assay: In vitro drug sensitivity of HIV-1 laboratory isolates, WT; assay type: cell-based
Procedure: as §1, §2

[4] = biological target: T1, wild type HIV-1 protease (Human immunodeficiency virus type 1 group M subtype B, UniProt P04585); assay: Ki against wild type (WT) HIV-1 protease; assay type: biochemical; conditions: WT
T1 construct: over 45 of the 99 amino acids of the HIV protease monomer

[5] = biological target: HIV-1 protease Mutant 9 (Human immunodeficiency virus type 1, UniProt P04585); assay: Ki against HIV-1 protease Mutant 9; assay type: biochemical; conditions: Mutant 9
[6] = test system: HIV-1 isolates, Mutant 9; assay: In vitro drug sensitivity of HIV-1 laboratory isolates, Mutant 9; assay type: cell-based
Procedure: as §1, §2

[7] = Human immunodeficiency virus 1, read-out: IC50 Mutant 8
[8] = Human immunodeficiency virus 1, read-out: IC50 Mutant 9
[9] = Mutant 8, read-out: IC50 Mutant 8
[10] = Mutant 9, read-out: IC50 Mutant 9

SMILES: CCCC[S+]([O-])Cc1coc2ccc(S(=O)(=O)N(CC(C)C)C[C@@H](O)[C@H](Cc3ccccc3)NC(=O)OC3COC4OCCC34)cc12 (stereo partly drawn) [Compound 111]
- IC50 [1, 7]: 24 nM
- Ki [2]: < 0.3 nM
- IC50 ([3]; Human immunodeficiency virus 1): 8 nM
- Ki [4]: < 0.1 nM
- Ki [5]: 0.16 nM
- IC50 [6, 8]: 49 nM

SMILES: CCOC(=O)NCc1coc2ccc(S(=O)(=O)N(CC(C)C)C[C@@H](O)[C@H](Cc3ccccc3)NC(=O)OC3COC4OCCC34)cc12 (stereo partly drawn) [Compound 112]
- IC50 [1, 9]: 11 nM
- Ki [2]: < 0.3 nM
- IC50 ([3]; WT): 1.8 nM
- Ki [4]: < 0.1 nM
- Ki [5]: < 0.1 nM
- IC50 [6, 10]: 29 nM

SMILES: CCC(=O)NCc1coc2ccc(S(=O)(=O)N(CC(C)C)C[C@@H](O)[C@H](Cc3ccccc3)NC(=O)OC3COC4OCCC34)cc12 (stereo partly drawn) [Compound 113]
- IC50 [1, 9]: 20 nM
- Ki [2]: < 0.3 nM
- IC50 ([3]; WT): 7 nM
- Ki [4]: < 0.1 nM
- Ki [5]: < 0.1 nM
- IC50 [6, 10]: 50 nM

SMILES: CC(C)CN(CC(O)C(Cc1ccccc1)NC(=O)OC1COC2OCCC12)S(=O)(=O)c1ccc2occ(CNC(=O)c3ccccc3)c2c1 (stereo not drawn) [Compound 114, (3-{[3-(Benzoylamino-methyl)-benzofuran-5-sulfonyl]-isobutyl-amino}-1-benzyl-2-hydroxy-propyl)-carbamic acid hexahydro-furo[2,3-b]furan-3-yl ester]
- IC50 [1, 7]: 23 nM
- Ki [2]: < 0.3 nM
- IC50 ([3]; Human immunodeficiency virus 1): 4 nM
- Ki [4]: 0.1 nM
- Ki [5]: < 0.1 nM
- IC50 [6, 8]: 30 nM

SMILES: CC(C)CN(CC(O)C(Cc1ccccc1)NC(=O)OC1COC2OCCC12)S(=O)(=O)c1ccc2occ(CNS(=O)(=O)C(C)C)c2c1 (stereo not drawn) [Compound 115]
- IC50 [1, 7]: 18 nM
- Ki [2]: < 0.3 nM
- IC50 ([3]; Human immunodeficiency virus 1): 6 nM
- Ki [4]: < 0.1 nM
- Ki [5]: 0.27 nM
- IC50 [6, 8]: 64 nM

SMILES: CC(C)CN(C[C@@H](O)[C@H](Cc1ccccc1)NC(=O)OC1COC2OCCC12)S(=O)(=O)c1ccc2occ(CNC(=O)CNC(=O)OCc3ccccc3)c2c1 (stereo partly drawn) [Compound 116]
- IC50 [1, 9]: 50 nM
- Ki [2]: < 0.3 nM
- IC50 ([3]; WT): 15 nM
- Ki [4]: < 0.1 nM
- Ki [5]: 0.41 nM
- IC50 [6, 10]: 58 nM

SMILES: CC(C)CN(C[C@@H](O)[C@H](Cc1ccccc1)NC(=O)OC1COC2OCCC12)S(=O)(=O)c1ccc2occ(CNCCc3ccccn3)c2c1 (stereo partly drawn) [Compound 117]
- IC50 [1, 9]: 27 nM
- Ki [2]: < 0.3 nM
- IC50 ([3]; WT): 7 nM
- Ki [4]: < 0.1 nM
- Ki [5]: < 0.1 nM
- IC50 [6, 10]: 49 nM

SMILES: CC(C)CN(C[C@@H](O)[C@H](Cc1ccccc1)NC(=O)OC1COC2OCCC12)S(=O)(=O)c1ccc2occ(CNC(=O)c3cccnc3)c2c1 (stereo partly drawn) [Compound 118]
- IC50 [1, 9]: 35 nM
- Ki [2]: < 0.3 nM
- IC50 ([3]; WT): 30 nM
- Ki [4]: < 0.1 nM
- Ki [5]: 0.12 nM
- IC50 [6, 10]: 39 nM

SMILES: CC(C)CN(C[C@@H](O)[C@H](Cc1ccccc1)NC(=O)OC1COC2OCCC12)S(=O)(=O)c1ccc2occ(CNC(=O)CSCc3ccccc3)c2c1 (stereo partly drawn) [Compound 119]
- IC50 [1, 9]: 42 nM
- Ki [2]: < 0.3 nM
- IC50 ([3]; WT): 5 nM
- Ki [4]: 0.12 nM
- Ki [5]: 0.95 nM
- IC50 [6, 10]: 170 nM

SMILES: CC(C)CN(CC(O)C(Cc1ccccc1)NC(=O)OC1COC2OCCC12)S(=O)(=O)c1ccc2occ(CNC(=O)C[S+]([O-])Cc3ccccc3)c2c1 (stereo not drawn) [Compound 120]
- IC50 [1, 7]: 31 nM
- Ki [2]: < 0.3 nM
- IC50 ([3]; Human immunodeficiency virus 1): 20 nM
- Ki [4]: < 0.1 nM
- Ki [5]: 0.22 nM
- IC50 [6, 8]: 150 nM

SMILES: CCOC(=O)NCc1cc2cc(S(=O)(=O)N(CC(C)C)CC(O)C(Cc3ccccc3)NC(=O)OC3COC4OCCC34)ccc2o1 (stereo not drawn) [Compound 121]
- IC50 [1, 7]: 21 nM
- Ki [2]: < 0.3 nM
- IC50 ([3]; Human immunodeficiency virus 1): 8 nM
- Ki [4]: < 0.1 nM
- Ki [5]: 1.6 nM
- IC50 [6, 8]: > 400 nM

SMILES: CC(=O)OCc1coc2ccc(S(=O)(=O)N(CC(C)C)CC(O)C(Cc3ccccc3)NC(=O)OC3COC4OCCC34)cc12 (stereo not drawn) [Compound 122]
- IC50 [1, 7]: 11 nM
- Ki [2]: < 0.3 nM
- IC50 ([3]; Human immunodeficiency virus 1): 5.9 nM
- Ki [4]: < 0.1 nM
- Ki [5]: 0.27 nM
- IC50 [6, 8]: 110 nM

SMILES: COCc1coc2ccc(S(=O)(=O)N(CC(C)C)CC(O)C(Cc3ccccc3)NC(=O)OC3COC4OCCC34)cc12 (stereo not drawn) [Compound 123]
- IC50 [1, 7]: 19 nM
- Ki [2]: < 0.3 nM
- IC50 ([3]; Human immunodeficiency virus 1): 4 nM
- Ki [4]: 0.13 nM
- Ki [5]: 0.22 nM
- IC50 [6, 8]: 240 nM

SMILES: CC(C)CN(CC(O)C(Cc1ccccc1)NC(=O)OC1COC2OCCC12)S(=O)(=O)c1ccc2occ(CO)c2c1 (stereo not drawn) [Compound 124]
- IC50 [1, 7]: 12 nM
- Ki [2]: < 0.3 nM
- IC50 ([3]; Human immunodeficiency virus 1): 8.7 nM
- Ki [4]: < 0.1 nM
- Ki [5]: 0.26 nM
- IC50 [6, 8]: 130 nM

SMILES: CC(C)CN(C[C@@H](O)[C@H](Cc1ccccc1)NC(=O)OC1COC2OCCC12)S(=O)(=O)c1ccc2occ(CNC(=O)c3ccco3)c2c1 (stereo partly drawn) [Compound 125]
- IC50 [1, 9]: 9 nM
- Ki [2]: < 0.3 nM
- IC50 ([3]; WT): 5 nM
- Ki [4]: < 0.1 nM
- Ki [5]: < 0.1 nM
- IC50 [6, 10]: 31 nM
